Results published in ChEMBL document CHEMBL5576082, “Minor Cannabinoids as Inhibitors of Skin Inflammation: Chemical Synthesis and Biological Evaluation” (J Nat Prod, 2024).
Calls of active or inactive are those of the source. The calls are words filed in the database; no cut-off is given here.

Legend:
[1] = system: HaCaT; assay: Antiinflammatory activity against human HaCaT cells assessed as inhibition of TNF-alpha-induced IL-8 protein expression after 6 hrs by ELISA; type: functional, cell-based
[2] = system: HaCaT; assay: Antiinflammatory activity against human HaCaT cells assessed as inhibition of TNF-alpha-induced IL-8 protein expression at 5 uM after 6 hrs by ELISA relative to control; type: functional
[3] = Inhibition of TNF-alpha-induced NFkappaB (unknown origin) transcription in human HaCaT cells transiently transfected with NFkappaB-LUC after 6 hrs by luminescence based spectrophotometric assay; type: cell-based
[4] = system: HaCaT; assay: Inhibition of TNF-alpha-induced NFkappaB (unknown origin) transcription in human HaCaT cells transiently transfected with NFkappaB-LUC at 5 uM after 6 hrs by luminescence based spectrophotometric assay; type: cell-based
[5] = system: HaCaT; assay: Cytotoxicity against human HaCaT cells assessed as reduction in cell viability at 5 uM after 24 hrs by MTT assay; type: toxicity, cell-based

**Q.** Which IC50 [1] does the source give for `CCCCCc1cc(O)c(C/C=C(\C)CCC=C(C)C)c(O)c1` [CANNABIGEROL] here?
**A.** The IC50 was > 5000 nM.

**Q.** What about the inhibition at 5 µM [2] of the same compound?
**A.** The inhibition at 5 µM was ~40%.

**Q.** What about the IC50 [3] of the same compound?
**A.** Its IC50 is 2510 nM.

**Q.** For `C=C(C)[C@@H]1CCC(C)=C[C@H]1c1c(O)cc(CCCCC)cc1O`, which inhibition [2] is on record?
**A.** Its inhibition is “inactive”.

**Q.** Which results are given for `CCCCc1cc(O)c(C/C=C(\C)CCC=C(C)C)c(O)c1C(=O)OC`?
**A.** IC50 [1]: 530 nM; inhibition at 5 µM [2]: 100%; inhibition [4]: 100%; IC50 [3]: 600 nM; Activity [5]: Non-Toxic

**Q.** Which IC50 [1] does the source give for `CCCCc1cc(O)c(C/C=C(/C)CCC=C(C)C)c(O)c1` here?
**A.** Its IC50 is 870 nM.

**Q.** And the inhibition at 5 µM [2]?
**A.** Its inhibition at 5 µM is 100%.

**Q.** And the inhibition [4]?
**A.** The inhibition was 100%.

**Q.** What about the IC50 [3] of the same compound?
**A.** Its IC50 is 2800 nM.

**Q.** And the Activity [5]?
**A.** Its Activity is “Non-Toxic”.

**Q.** For `CCCc1cc(O)c(C/C=C(\C)CCC=C(C)C)c(O)c1`, which inhibition [2] is on record?
**A.** The inhibition was “inactive”.

**Q.** And the inhibition [4]?
**A.** Its inhibition is “Active”.

**Q.** What about the Activity [5] of the same compound?
**A.** Its Activity is “Non-Toxic”.

**Q.** With `CCCc1cc(O)c(C/C=C(/C)CCC=C(C)C)c(O)c1` as the compound, how does the inhibition [2] read?
**A.** The inhibition was “inactive”.

**Q.** And the inhibition [4]?
**A.** Its inhibition is “Active”.

**Q.** And the Activity [5]?
**A.** Its Activity is “Non-Toxic”.

**Q.** What does the source list for `CCCCc1cc2c(c(O)c1C(=O)O)CC[C@@](C)(CCC=C(C)C)O2`?
**A.** inhibition [2]: inactive; inhibition [4]: Active; Activity [5]: Non-Toxic

**Q.** What does the source list for `CCCCc1cc(O)c2c(c1)O[C@](C)(CCC=C(C)C)CC2`?
**A.** IC50 [1]: 1060 nM; inhibition at 5 µM [2]: 100%; inhibition [4]: 100%; IC50 [3]: 3110 nM; Activity [5]: Non-Toxic

**Q.** With `CCCc1cc2c3c(c1)O[C@@]1(C)CCC([C@@H]3C1)C(C)(C)O2` (some centres not stated) as the compound, how does the inhibition [2] read?
**A.** The inhibition was “inactive”.

**Q.** What about the inhibition [4] of the same compound?
**A.** Its inhibition is “inactive”.

**Q.** And the Activity [5]?
**A.** Its Activity is “Non-Toxic”.

**Q.** Which inhibition [2] does the source give for `CCCc1cc(O)c2c(c1)O[C@](C)(CCC=C(C)C)CC2` here?
**A.** The inhibition was “inactive”.

**Q.** What about the inhibition [4] of the same compound?
**A.** Its inhibition is “Active”.

**Q.** And the Activity [5]?
**A.** The Activity was “Non-Toxic”.

**Q.** For `CCCCc1cc2c3c(c1)O[C@@]1(C)CCC([C@@H]3C1)C(C)(C)O2` (some centres not stated), which inhibition [2] is on record?
**A.** The inhibition was “inactive”.

**Q.** What about the inhibition [4] of the same compound?
**A.** The inhibition was “inactive”.

**Q.** And the Activity [5]?
**A.** The Activity was “Non-Toxic”.

**Q.** What does the source list for `CCCCc1cc(O)c(C/C=C(\C)CCC=C(C)C)c(O)c1`?
**A.** IC50 [1]: 820 nM; inhibition at 5 µM [2]: 100%; inhibition [4]: 100%; IC50 [3]: 2360 nM; Activity [5]: Non-Toxic

**Q.** For `CCCCc1cc2c(c(O)c1C(=O)OC)CC[C@@](C)(CCC=C(C)C)O2`, which IC50 [1] is on record?
**A.** Its IC50 is 1580 nM.

**Q.** And the inhibition at 5 µM [2]?
**A.** The inhibition at 5 µM was 100%.

**Q.** And the inhibition [4]?
**A.** The inhibition was “Active”.

**Q.** And the IC50 [3]?
**A.** The IC50 was 4230 nM.

**Q.** And the Activity [5]?
**A.** The Activity was “Non-Toxic”.
